A short description of data set [1]: Oxidative stability (Oxipres, high-pressure oxygen bomb method). It counts as physicochemical. The settings on record: antioxidants 0.33%. The method, then:
Due to their high oil content, oleogels are characterized by instability in an oxygen environment, so at the beginning of the study, an oxidative stability test of the oleogel was performed, which was compared with a pure sunflower oil sample and an oil sample containing TBHQ (tertiary butylhydroquinone).
To determine the oxidative stability, the oleogel was compared with a sunflower oil alone (blank sample) and a sample of sunflower oil with the addition of TBHQ (tertiary butylhydroquinone), which is widely used as an effective food antioxidant. TBHQ was added to the oil at a concentration equivalent to the concentration of polyphenols in the oleogel—0.33% (determined in previous studies).
An Oxipres ML 3,047,312 machine (Mikrolab Aarhus, Aarhus, Denmark) was used to determine oxidative stability. This equipment is a modification of the high-pressure oxygen bomb method (by standard ASTM D942), the principle of which is to oxidize substrates with oxygen. Enough sample was weighed into glass containers to contain 5 g of substrate. […] The protection factor (PF) is calculated according to the formula PF = […], where IPx is the induction period for the sample with antioxidant additives, hours; IPk is the induction period for the sample without antioxidant additives or the “blank sample”, hours. Using that formula, the oxidative stability was determined and compared among samples.

Details of data set [2]: method as in PMID 27155877. The settings on record: endotracheal route; nanoparticles 25.2 mg/kg; cited from earlier work.
Data set [3] in a line: Pozharitskaya study: betulin in blood plasma after endotracheal administration. The data set is classed as in vivo, rat. The note with it: cross-study comparison.
Data set [4] in a line: Content of BBE compounds in rat tissues after repeated peroral oleogel administration. The settings on record: for Content in heart, liver, kidney, brain tissues: oleogel half dose daily 7 days, 24 h after last administration, level of quantification 50 ng/g.
The conditions of data set [5]: oral in olive oil, 200 mg/kg, mice; cited from earlier work.
For data set [6] the following is noted: male, Wistar, rat, in vivo.
The nature of data set [7]: Betulin, lupeol and betulinic acid in rat blood plasma after peroral administration of BBE dispersed systems (LC/MS/MS).
Where [8] appears, read: oleogel half dose daily for 7 days.

Entries after “also recorded” stand apart in the source; their conditions may differ.

As to `CC(C)(C)c1cc(O)ccc1O` [TBHQ in oil, tertiary butylhydroquinone], the Induction period in data set [1] (oxygen 8–8.5 bar, 120 °C) is given as 3.5 h. In data set [1] (vs blank sunflower oil), this compound displayed a Protection factor of 2.7.
For `C=C(C)[C@@H]1CC[C@]2(CO)CC[C@]3(C)[C@H](CC[C@@H]4[C@@]5(C)CC[C@H](O)C(C)(C)[C@@H]5CC[C@]43C)[C@@H]12` [betulin powder], in data set [2], the “Betulin in blood plasma” value is 6.9 µg/mL. Besides, the “Plasma level, times higher than aqueous suspension of BBE powder in this study” value in data set [3] is approximately 1000 times.
As for `C=C(C)[C@@H]1CC[C@]2(CO)CC[C@]3(C)[C@H](CC[C@@H]4[C@@]5(C)CC[C@H](O)C(C)(C)[C@@H]5CC[C@]43C)[C@@H]12` [betulin], in data set [4], the “Content in heart, liver, kidney, brain tissues” value is listed as “not detected; also recorded: not found”.
On the same count and under the same terms, the entry for `C=C(C)[C@@H]1CC[C@]2(C(=O)O)CC[C@]3(C)[C@H](CC[C@@H]4[C@@]5(C)CC[C@H](O)C(C)(C)[C@@H]5CC[C@]43C)[C@@H]12` [betulinic acid] is “not detected; also recorded: not found”.
Consider `C=C(C)[C@@H]1CC[C@]2(C)CC[C@]3(C)[C@H](CC[C@@H]4[C@@]5(C)CC[C@H](O)C(C)(C)[C@@H]5CC[C@]43C)[C@@H]12` [lupeol], for which, in data set [5], the “Lupeol concentration in blood plasma” value was 6 ng/µL. Besides, the “Lupeol content in heart” value in data set [6] is given as “about 250 ng/g tissue”. In data set [4] (setting [8]), the “Lupeol content in brain” value was “not found”, the “Lupeol content in kidneys” value is “about 250 ng/g tissue” and the “Lupeol content in liver” value is reported as “about 21 ng/g tissue”. In data set [7] (considering the lower dose of lupeol), the “Lupeol bioavailability from the oleogel, times better than betulin bioavailability” value stood at 20 times. The “Lupeol exposure, times higher than betulin exposure” value in data set [7] (peroral BBE systems) was “about 3 times”.

(Values after publication PMC10780823, “Innovative Approach to Enhance Bioavailability of Birch Bark Extracts: Novel Method of Oleogel Development Contrasted with Other Dispersed Systems” (Plants, 2024).)
